Measured values from ChEMBL document CHEMBL1134688, “Synthesis, biological evaluation, and pharmacophore generation of new pyridazinone derivatives with affinity toward alpha(1)- and alpha(2)-adrenoceptors” (J Med Chem, 2001).

Tests used:
[1] = target: Adrenergic receptor alpha-2 (Rattus norvegicus) (UniProt P22086+P19328+P22909); test: Ratio of binding affinity towards Alpha-2 and alpha-1 adrenergic receptor; assay type: protein assay
[2] = target: T1, Adrenergic receptor alpha-1 (Rattus norvegicus, UniProt P15823+P23944+P43140); test: Binding affinity towards alpha-1 adrenergic receptor in rat cortex membrane using [3H]-prazosin radioligand; assay type: cell membranes
T1 sequence (P15823 whole entry): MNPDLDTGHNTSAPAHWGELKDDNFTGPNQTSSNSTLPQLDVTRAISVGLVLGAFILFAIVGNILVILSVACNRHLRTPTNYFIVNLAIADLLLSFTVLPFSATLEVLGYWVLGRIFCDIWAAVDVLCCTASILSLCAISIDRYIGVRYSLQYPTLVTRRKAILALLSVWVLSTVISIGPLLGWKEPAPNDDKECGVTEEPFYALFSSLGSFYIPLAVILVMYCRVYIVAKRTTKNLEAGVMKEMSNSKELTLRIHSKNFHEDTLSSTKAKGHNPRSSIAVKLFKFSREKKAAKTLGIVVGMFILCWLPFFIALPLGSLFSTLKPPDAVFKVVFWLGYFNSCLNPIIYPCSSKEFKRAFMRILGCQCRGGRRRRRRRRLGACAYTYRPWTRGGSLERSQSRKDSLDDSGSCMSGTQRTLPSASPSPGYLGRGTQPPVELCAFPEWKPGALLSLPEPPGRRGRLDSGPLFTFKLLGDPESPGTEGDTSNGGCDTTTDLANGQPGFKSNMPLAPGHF
T1 sequence (P23944 whole entry): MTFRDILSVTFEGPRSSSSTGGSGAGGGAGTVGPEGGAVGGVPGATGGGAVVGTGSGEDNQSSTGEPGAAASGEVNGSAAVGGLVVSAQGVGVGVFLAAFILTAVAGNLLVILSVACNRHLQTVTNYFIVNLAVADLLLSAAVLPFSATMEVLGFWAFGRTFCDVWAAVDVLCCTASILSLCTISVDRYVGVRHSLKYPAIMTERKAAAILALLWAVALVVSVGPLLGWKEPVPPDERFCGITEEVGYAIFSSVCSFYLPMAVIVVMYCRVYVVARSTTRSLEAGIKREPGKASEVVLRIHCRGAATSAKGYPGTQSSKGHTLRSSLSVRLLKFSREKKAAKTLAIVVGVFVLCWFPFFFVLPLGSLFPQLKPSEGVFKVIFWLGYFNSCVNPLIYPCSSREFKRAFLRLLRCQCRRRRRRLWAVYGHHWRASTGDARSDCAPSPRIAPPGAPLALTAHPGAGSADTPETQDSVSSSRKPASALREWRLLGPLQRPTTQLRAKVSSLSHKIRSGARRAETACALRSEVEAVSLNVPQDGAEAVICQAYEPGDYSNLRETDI
T1 sequence (P43140 whole entry): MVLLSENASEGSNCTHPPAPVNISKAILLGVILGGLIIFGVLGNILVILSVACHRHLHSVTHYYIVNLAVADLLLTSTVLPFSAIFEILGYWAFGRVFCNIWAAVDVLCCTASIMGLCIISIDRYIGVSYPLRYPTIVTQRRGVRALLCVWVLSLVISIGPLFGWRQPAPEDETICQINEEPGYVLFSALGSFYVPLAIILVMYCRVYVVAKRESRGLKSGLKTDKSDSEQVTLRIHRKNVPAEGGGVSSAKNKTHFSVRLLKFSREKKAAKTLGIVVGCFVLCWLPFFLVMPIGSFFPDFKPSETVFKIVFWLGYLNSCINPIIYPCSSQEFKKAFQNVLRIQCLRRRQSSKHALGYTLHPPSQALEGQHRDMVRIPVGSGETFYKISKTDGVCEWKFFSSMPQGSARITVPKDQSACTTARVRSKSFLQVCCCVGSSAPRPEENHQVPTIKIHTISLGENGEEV

[3] = target: T2, Adrenergic receptor alpha-2 (Rattus norvegicus, UniProt P22086+P19328+P22909); test: Binding affinity towards alpha-2 adrenergic receptor in rat cortex membrane using [3H]rauwolscine radioligand; assay type: cell membranes
T2 sequence (P22086 whole entry): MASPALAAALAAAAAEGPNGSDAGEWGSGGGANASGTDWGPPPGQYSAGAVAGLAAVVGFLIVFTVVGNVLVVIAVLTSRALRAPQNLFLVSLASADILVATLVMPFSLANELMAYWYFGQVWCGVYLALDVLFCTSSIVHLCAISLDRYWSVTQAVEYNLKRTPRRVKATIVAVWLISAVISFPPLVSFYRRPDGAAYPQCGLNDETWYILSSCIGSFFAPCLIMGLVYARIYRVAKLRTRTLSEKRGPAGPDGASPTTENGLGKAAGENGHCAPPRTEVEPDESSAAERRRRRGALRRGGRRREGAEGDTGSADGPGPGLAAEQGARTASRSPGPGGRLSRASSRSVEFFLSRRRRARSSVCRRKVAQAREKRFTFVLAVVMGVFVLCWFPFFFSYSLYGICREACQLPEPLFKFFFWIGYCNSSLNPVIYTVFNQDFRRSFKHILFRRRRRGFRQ
T2 sequence (P19328 whole entry): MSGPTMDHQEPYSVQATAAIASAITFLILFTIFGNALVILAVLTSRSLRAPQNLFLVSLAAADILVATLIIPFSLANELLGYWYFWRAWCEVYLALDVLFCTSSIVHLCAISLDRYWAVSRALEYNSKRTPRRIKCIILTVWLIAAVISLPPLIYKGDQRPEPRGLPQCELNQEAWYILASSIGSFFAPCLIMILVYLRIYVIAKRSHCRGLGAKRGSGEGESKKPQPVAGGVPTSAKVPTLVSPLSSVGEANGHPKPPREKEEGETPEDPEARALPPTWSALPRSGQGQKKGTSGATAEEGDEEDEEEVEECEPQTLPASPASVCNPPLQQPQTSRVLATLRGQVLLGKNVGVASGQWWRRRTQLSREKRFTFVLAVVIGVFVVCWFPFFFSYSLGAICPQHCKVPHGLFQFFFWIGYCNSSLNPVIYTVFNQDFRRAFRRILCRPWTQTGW
T2 sequence (P22909 whole entry): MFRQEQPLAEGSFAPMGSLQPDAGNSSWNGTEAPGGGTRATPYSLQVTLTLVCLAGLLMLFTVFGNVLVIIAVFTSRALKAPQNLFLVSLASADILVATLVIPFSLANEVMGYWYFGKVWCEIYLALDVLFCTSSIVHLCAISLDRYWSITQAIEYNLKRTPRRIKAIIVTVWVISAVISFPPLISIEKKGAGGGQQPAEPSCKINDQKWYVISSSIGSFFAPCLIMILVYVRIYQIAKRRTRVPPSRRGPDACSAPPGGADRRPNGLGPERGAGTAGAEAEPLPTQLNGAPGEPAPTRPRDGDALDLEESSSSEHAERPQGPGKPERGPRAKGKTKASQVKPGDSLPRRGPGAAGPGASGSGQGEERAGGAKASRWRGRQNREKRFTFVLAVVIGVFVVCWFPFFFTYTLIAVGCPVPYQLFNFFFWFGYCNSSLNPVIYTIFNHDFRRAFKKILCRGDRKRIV

SMILES | Ratio [1] | Ki [2] [nM] | Ki [3] [nM]
COc1ccccc1OCCN1CCN(c2ccc(=O)n(CCCCCN3CCN(c4ccccc4Cl)CC3)n2)CC1 | 20 | 7 | 138
COc1ccccc1OCCN1CCN(c2cnn(CCCCCCCCN3CCN(c4ccccc4OC)CC3)c(=O)c2Cl)CC1 | 6.5 | 3.5 | 22.7
COc1ccccc1OCCN1CCN(c2cnn(CCCCCCCN3CCN(c4ccccc4Cl)CC3)c(=O)c2Cl)CC1 | 2.7 | 2.7 | 7.4
COc1ccccc1OCCN1CCN(c2cnn(CCN3CCN(c4ccccc4Cl)CC3)c(=O)c2Cl)CC1 | 5 | 58.8 | 292.3
O=C(c1ccco1)N1CCN(c2ccc(=O)n(CCCN3CCN(c4ccccc4Cl)CC3)n2)CC1 | 20.3 | 12.8 | 260
COc1ccccc1N1CCN(CCn2nc(N3CCN(C(=O)c4ccco4)CC3)ccc2=O)CC1 |  | 94.5 | 
COc1ccc(Cl)cc1N1CCN(CCn2nc(-c3ccccc3)c3c(C)onc3c2=O)CC1 |  | 15.6 | 
COc1ccccc1N1CCN(CCn2ncc(N3CCN(C(=O)c4ccco4)CC3)c(Cl)c2=O)CC1 | 13.3 | 33 | 440
COc1ccccc1OCCN1CCN(c2ccc(=O)n(CCCCN3CCN(c4ccccc4Cl)CC3)n2)CC1 | 86.7 | 0.8 | 69.4
COc1ccccc1N1CCN(CCCCCCn2ncc(N3CCN(C(=O)c4ccco4)CC3)c(Cl)c2=O)CC1 | 6 | 4.1 | 24.5
COc1ccccc1OCCN1CCN(c2cnn(CCCCCCN3CCN(c4ccccc4Cl)CC3)c(=O)c2Cl)CC1 | 6 | 4.2 | 25.2
O=C(c1ccco1)N1CCN(c2ccc(=O)n(CCCCCCCN3CCN(c4ccccc4Cl)CC3)n2)CC1 | 4.2 | 5.6 | 23.5
COc1ccccc1OCCN1CCN(c2ccc(=O)n(CCCCN3CCN(c4ccccc4OC)CC3)n2)CC1 | 103 | 0.6 | 62
COc1ccccc1OCCN1CCN(c2ccc(=O)n(CCCCCN3CCN(c4ccccc4OC)CC3)n2)CC1 | 5.4 | 12.9 | 69.8
O=C(c1ccco1)N1CCN(c2ccc(=O)n(CCCCCCN3CCN(c4ccccc4Cl)CC3)n2)CC1 | 4 | 5.9 | 23.7
COc1ccccc1N1CCN(CCCCCn2ncc(N3CCN(C(=O)c4ccco4)CC3)c(Cl)c2=O)CC1 | 12.3 | 1.9 | 23.3
O=C(c1ccco1)N1CCN(c2ccc(=O)n(CCCCN3CCN(c4ccccc4Cl)CC3)n2)CC1 | 3 | 7.9 | 24
O=C(c1ccco1)N1CCN(c2ccc(=O)n(CCN3CCN(c4ccccc4Cl)CC3)n2)CC1 | 1.5 | 34 | 52.6
COc1ccccc1N1CCN(CCCCCCn2nc(N3CCN(C(=O)c4ccco4)CC3)ccc2=O)CC1 | 5.6 | 17.8 | 100
COc1ccccc1N1CCN(CCCn2nc(-c3ccccc3)c(C(C)=O)c(N)c2=O)CC1 |  | 46.7 | 
COc1ccccc1N1CCN(Cn2nc(-c3ccccc3)c3c(C)onc3c2=O)CC1 |  | 2308 | 
COc1ccccc1N1CCN(CCn2nc(-c3ccccc3)c3c(C)onc3c2=O)CC1 |  | 147 | 
COc1ccc(Cl)cc1N1CCN(CCCn2nc(-c3ccccc3)c3c(C)onc3c2=O)CC1 |  | 7.9 | 
COc1ccccc1N1CCN(CC(=O)c2c(-c3ccccc3)nn(C)c(=O)c2N)CC1 |  | 516 | 
COc1ccccc1N1CCN(Cn2nc(-c3ccccc3)c(C(C)=O)c(N)c2=O)CC1 |  | 2395 | 
COc1ccc(Cl)cc1N1CCN(CCn2nc(-c3ccccc3)c(C(C)=O)c(N)c2=O)CC1 |  | 42.7 | 
